Assay results published in ChEMBL document CHEMBL5338815 (J Med Chem, 2023).
The source made the active and inactive calls. The rule behind the calls is not given here.

What was measured:
[1] = system: MDA-MB-231; experiment: Antiproliferative activity against human MDA-MB-231 cells assessed as cell viability measured after 24 hrs by CCK-8 assay; type: functional, cell-based; conditions: MDA-MB-231, 24 h
[2] = target: T1, Histone-lysine N-methyltransferase EHMT2 (Homo sapiens) (UniProt Q96KQ7); experiment: Binding affinity to G9a in human MDA-MB-231 cells assessed as protein stabilization at 37 to 41.7 degC at 10 uM incubated for 15 hrs in presence of G9a antibody by CETSA; type: cell-based
T1 sequence (whole entry): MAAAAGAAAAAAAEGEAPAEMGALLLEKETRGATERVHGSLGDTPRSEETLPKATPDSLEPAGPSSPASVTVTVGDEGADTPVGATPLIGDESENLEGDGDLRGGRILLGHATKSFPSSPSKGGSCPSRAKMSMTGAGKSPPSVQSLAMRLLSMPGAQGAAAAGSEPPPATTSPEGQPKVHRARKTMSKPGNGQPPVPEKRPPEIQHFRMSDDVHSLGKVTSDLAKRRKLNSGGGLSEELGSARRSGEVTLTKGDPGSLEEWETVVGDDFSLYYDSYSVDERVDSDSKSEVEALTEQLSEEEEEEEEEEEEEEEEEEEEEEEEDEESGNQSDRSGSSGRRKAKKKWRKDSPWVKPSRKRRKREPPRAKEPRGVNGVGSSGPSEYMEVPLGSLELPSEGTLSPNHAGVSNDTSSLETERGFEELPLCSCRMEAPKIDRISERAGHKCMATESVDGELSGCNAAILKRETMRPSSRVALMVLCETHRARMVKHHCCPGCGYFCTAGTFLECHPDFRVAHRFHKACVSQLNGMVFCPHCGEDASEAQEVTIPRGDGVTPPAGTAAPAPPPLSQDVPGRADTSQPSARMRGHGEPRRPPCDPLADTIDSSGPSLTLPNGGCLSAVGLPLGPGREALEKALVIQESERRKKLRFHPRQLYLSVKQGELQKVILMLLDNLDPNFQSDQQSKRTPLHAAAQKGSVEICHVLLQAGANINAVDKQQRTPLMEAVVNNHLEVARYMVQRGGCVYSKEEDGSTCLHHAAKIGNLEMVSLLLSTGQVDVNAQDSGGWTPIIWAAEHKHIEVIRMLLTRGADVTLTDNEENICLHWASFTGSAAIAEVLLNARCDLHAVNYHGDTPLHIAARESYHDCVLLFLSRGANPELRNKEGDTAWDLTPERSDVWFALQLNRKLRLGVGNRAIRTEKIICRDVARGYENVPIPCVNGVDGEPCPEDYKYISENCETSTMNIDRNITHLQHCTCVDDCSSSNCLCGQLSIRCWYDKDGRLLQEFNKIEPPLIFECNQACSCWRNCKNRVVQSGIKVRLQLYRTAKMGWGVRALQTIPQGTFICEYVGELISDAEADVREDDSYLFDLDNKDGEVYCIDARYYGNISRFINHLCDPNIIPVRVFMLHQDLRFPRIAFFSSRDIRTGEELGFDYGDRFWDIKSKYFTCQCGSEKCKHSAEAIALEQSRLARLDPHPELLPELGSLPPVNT

[3] = target: T2, Histone-lysine N-methyltransferase EHMT1 (Homo sapiens, UniProt Q9H9B1); experiment: Inhibition of GLP (unknown origin) by AlphaLISA assay
T2 sequence (Q9H9B1 whole entry): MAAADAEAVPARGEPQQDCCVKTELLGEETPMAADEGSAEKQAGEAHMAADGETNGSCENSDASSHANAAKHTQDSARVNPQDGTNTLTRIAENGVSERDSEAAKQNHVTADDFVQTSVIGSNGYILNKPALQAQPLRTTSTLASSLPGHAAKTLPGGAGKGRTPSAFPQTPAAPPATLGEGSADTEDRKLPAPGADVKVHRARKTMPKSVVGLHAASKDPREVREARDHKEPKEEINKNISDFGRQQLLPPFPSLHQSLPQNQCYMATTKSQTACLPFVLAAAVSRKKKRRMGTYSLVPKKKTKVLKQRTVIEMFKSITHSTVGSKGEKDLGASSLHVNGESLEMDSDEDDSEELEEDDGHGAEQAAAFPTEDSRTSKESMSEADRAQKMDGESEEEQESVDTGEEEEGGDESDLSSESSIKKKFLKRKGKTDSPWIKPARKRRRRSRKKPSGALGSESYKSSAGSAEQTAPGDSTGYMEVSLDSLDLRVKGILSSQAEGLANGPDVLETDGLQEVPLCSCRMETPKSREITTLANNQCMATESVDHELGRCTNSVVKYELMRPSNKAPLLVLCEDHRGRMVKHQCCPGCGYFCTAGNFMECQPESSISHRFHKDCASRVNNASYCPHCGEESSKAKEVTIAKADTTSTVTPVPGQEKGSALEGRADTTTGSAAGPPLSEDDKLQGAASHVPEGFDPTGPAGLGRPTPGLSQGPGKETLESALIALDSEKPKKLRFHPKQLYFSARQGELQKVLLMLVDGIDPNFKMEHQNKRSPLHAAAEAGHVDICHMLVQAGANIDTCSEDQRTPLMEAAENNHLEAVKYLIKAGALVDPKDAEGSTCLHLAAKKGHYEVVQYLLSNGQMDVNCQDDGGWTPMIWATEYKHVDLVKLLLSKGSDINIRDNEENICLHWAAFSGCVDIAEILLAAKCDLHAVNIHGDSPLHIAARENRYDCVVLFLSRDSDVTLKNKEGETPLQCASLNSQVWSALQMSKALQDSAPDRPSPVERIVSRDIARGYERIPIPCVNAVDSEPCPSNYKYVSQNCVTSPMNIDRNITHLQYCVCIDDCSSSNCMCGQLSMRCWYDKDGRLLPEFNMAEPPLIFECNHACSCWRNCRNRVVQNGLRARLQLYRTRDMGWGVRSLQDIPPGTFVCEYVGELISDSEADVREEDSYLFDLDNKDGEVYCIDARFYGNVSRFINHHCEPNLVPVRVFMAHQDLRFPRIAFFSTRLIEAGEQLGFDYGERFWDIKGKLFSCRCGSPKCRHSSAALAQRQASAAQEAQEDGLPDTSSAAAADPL

[4] = target: Histone-lysine N-methyltransferase 2A (Homo sapiens, UniProt Q03164); experiment: Inhibition of MLL1 (unknown origin)
Chain of Histone-lysine N-methyltransferase 2A (Q03164 1-2718 limits assumed): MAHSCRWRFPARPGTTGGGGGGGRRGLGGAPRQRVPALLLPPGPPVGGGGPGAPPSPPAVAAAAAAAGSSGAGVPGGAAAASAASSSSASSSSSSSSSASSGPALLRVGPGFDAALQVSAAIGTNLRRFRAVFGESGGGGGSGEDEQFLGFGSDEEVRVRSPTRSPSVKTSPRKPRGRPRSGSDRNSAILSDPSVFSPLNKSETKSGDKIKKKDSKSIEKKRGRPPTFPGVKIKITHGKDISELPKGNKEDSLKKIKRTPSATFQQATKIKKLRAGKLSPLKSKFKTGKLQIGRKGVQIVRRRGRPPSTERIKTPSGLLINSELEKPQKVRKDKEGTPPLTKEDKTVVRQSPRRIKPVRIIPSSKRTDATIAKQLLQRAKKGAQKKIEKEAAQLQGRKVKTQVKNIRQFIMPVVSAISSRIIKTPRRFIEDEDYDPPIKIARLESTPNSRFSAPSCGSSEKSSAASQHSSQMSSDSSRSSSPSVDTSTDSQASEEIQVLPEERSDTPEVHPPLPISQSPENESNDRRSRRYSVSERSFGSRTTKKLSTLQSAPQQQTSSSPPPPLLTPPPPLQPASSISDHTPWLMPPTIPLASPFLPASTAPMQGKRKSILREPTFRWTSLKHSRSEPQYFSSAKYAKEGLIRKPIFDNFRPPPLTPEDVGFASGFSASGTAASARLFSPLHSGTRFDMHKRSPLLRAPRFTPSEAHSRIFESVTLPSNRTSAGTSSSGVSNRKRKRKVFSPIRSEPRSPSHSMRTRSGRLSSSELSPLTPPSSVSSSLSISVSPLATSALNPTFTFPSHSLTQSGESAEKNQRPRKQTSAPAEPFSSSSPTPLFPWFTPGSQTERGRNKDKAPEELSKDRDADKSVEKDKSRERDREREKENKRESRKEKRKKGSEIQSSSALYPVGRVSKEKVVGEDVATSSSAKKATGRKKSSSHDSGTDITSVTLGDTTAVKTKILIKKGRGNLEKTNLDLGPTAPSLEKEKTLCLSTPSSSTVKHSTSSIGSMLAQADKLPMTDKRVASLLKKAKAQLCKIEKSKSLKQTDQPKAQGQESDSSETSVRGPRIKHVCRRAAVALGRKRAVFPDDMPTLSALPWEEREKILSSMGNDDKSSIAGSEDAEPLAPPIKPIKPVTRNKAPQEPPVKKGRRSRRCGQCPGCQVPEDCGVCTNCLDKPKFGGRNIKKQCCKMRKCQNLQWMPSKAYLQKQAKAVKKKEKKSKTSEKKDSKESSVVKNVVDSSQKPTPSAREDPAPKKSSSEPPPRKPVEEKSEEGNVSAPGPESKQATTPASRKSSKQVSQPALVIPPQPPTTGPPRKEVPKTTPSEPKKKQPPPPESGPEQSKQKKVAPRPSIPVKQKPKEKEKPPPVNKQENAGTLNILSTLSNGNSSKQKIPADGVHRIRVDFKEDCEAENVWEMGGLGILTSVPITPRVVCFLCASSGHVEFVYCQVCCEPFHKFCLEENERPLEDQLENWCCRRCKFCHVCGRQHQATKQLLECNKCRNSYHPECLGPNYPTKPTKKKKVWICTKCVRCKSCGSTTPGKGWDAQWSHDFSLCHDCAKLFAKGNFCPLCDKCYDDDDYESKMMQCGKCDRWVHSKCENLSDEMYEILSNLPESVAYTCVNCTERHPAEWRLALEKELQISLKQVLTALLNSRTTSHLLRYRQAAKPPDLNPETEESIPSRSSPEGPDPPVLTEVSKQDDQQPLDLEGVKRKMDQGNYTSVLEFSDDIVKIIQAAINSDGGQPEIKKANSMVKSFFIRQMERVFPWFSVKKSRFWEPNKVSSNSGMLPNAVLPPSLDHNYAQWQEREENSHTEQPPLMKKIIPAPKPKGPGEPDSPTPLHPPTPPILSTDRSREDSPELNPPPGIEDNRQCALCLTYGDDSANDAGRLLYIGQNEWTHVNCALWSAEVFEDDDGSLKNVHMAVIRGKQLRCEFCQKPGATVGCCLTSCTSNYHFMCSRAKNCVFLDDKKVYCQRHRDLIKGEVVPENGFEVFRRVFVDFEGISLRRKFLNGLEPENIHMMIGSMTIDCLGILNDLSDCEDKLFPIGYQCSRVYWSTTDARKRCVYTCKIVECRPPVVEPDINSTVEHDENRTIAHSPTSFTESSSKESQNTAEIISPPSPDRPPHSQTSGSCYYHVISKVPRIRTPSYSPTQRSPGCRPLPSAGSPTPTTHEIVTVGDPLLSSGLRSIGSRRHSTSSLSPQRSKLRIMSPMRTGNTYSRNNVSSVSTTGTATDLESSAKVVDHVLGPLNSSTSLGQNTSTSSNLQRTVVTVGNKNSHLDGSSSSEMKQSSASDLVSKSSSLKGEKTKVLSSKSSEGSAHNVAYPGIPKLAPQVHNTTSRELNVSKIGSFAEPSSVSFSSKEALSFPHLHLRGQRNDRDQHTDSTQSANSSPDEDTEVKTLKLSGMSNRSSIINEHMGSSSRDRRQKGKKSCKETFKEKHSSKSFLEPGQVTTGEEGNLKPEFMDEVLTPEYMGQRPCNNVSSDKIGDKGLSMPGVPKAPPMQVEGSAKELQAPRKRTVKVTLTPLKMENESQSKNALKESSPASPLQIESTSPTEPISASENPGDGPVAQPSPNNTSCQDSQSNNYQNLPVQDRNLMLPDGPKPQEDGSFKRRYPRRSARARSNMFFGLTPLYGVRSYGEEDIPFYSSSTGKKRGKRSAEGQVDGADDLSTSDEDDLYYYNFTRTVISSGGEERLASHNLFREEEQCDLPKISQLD
Chain of Histone-lysine N-methyltransferase 2A (Q03164 2719-3969 limits assumed): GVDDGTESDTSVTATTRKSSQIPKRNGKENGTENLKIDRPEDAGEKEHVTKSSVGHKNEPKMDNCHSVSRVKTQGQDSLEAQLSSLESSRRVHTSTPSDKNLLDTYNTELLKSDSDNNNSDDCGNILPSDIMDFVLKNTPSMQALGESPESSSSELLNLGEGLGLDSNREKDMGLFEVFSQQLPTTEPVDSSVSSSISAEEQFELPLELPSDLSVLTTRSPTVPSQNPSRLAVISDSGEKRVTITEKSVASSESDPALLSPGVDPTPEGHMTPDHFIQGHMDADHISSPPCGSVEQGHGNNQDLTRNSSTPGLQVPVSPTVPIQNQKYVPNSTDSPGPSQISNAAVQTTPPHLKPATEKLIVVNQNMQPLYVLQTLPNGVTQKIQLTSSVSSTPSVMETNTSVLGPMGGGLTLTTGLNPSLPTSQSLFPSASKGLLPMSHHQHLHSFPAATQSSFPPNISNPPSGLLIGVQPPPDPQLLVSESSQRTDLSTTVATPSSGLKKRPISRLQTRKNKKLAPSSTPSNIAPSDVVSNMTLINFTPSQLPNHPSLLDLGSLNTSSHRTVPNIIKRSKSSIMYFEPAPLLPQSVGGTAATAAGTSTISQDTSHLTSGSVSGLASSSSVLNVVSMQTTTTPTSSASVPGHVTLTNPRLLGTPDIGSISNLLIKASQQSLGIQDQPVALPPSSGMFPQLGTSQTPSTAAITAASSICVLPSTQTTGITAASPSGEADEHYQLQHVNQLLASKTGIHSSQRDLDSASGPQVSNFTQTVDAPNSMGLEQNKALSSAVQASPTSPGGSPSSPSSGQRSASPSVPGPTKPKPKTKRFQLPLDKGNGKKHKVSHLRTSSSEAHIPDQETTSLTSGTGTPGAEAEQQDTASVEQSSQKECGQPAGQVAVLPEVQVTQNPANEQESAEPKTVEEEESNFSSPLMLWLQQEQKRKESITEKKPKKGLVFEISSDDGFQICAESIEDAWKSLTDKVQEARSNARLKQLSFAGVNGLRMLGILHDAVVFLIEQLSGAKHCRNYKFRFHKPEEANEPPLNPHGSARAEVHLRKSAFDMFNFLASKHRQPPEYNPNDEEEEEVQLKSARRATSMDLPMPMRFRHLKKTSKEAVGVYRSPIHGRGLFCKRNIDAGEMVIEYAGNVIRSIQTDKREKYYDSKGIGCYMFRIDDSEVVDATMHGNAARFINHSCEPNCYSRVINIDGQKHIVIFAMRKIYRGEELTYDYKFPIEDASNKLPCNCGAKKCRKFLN

[5] = target: T1, Histone-lysine N-methyltransferase EHMT2 (Homo sapiens); experiment: Covalent inhibition of recombinant G9a (unknown origin) assessed as adduct formation intensity by measuring mass after 12 hrs by mass spectrometric analysis
[6] = system: MDA-MB-231; experiment: Reduction in H3K9me2 level in human MDA-MB-231 cells at 10 uM incubated for 48 hrs followed replaced with fresh medium measured after 24 hrs by Western blot analysis; type: functional, cell-based
[7] = system: PANC-1; experiment: Inhibition of colony formation in human PANC-1 cells at […] incubated for 14 days drug medium changed for every 2 days by crystal violet staining based analysis; type: cell-based; conditions: dose 2.5 µM, time 14.0 day
[8] = system: PANC-1; experiment: In vivo antitumor activity against human PANC-1 cells xenografted in Balb/c mouse model assessed as reduction in H3K9me2 level in tumor at 2 mg/kg, ip treated for 22 days relative to control; type: functional, organism-based; conditions: time 22.0 day

IC50 [1]: 2.88 µM
Activity [2]: Active
IC50 [3]: 0.005 µM
IC50 [4]: > 20 µM
Activity [5]: 60700 Da
SMILES: C=CC(=O)N(C)c1nc(NC2CCN(C)CC2)c2cc(OC)c(OCCCN3CCCC3)cc2n1
inhibition [6]: Active
inhibition [7]: Active
inhibition [8]: Active
